Data: patent publication US9868748B2, “Thiazolopyrrolidine inhibitors of ROR- γ” (Vitae Pharmaceuticals, Inc., priority 2013, dated 2018)
Like-named read-outs stand apart in the source and are kept apart here.

Columns and labels:
[1] = biological target: full-length RORγt in Jurkat cells (Homo sapiens (Human), UniProt P51449); assay: RORγt 5xRORE Assay in Jurkat Cells (Assay 2); format: cell-based; settings: Nanoluc luciferase reporter, 16-18 hrs
Method: [formula] RORγt 5xRORE Assay in Jurkat Cells (Assay 2)
Compounds of the present invention were tested for RORγ inverse agonist activity in a cell-based, transcriptional activity assay. Secreted Nanoluc® luciferase was used as a reporter for transcriptional activity of the full-length RORγt in Jurkat cells (ATCC, Cat. # TIB-152). A reporter plasmid was constructed by inserting 5 repeats of the ROR Response Element (RORE) […] (SEQ ID NO:1) into a commercially available promoterless plasmid pNL1.3[secNluc] (Promega, Cat. # N1021) using KpnI and HindIII restriction sites. The expression plasmid for RORγt was purchased (Geneocopoeia, Cat. # EX-T6988-M02). Jurkat cells (30 million cells) were transfected with 11 μg of EX-T6988-MO2 and 26 μg of the reporter plasmid in OptiMEM® media using Lipofectamine® LTX and Plus™ reagents (Life Technologies, Cat. #15338-100). After 5-6 h of incubation at 37° C./5% CO2, the cells were collected, resuspended in phenol-red free RPMI media containing 10% (v/v) delipidated FBS (Hyclone, Cat. # SH30855.03) and dispensed into 96-well clear bottom tissue culture plates (CoStar, Cat. #3603), at 80,000 cells per well. Tested compounds were added to the cells in the same media (final concentration of DMSO was 0.1% (v/v)), and the plates were incubated at 37° C./5% CO2 for 16-18 hrs. Luciferase activity in the conditioned supernatants was determined with NanoGlo® assay reagents (Promega, Cat. # N1130).

[2] = biological target: recombinant RORγ Ligand Binding Domain (LBD) protein (Homo sapiens (Human), UniProt P51449); assay: Radio-Ligand RORγ Binding Assay (Assay 1); settings: competition with 25-hydroxy [26,27-3H]-cholesterol, SPA; Table 9; read-out: RORγ Binding Ki Range*
Method: Radio-Ligand RORγ Binding Assay (Assay 1)
Compounds of the present invention were tested for ability to bind to RORγ in a cell-free competition assay with commercially available radio-ligand (RL), 25-hydroxy [26,27-^3H]— cholesterol (PerkinElmer, Cat. # NET674250UC), for a ligand binding site on a recombinant RORγ Ligand Binding Domain (LBD) protein expressed as a 6×His-Glutathione-S-Transferase (GST) fusion (“6×His” disclosed as SEQ ID NO: 2). The assay was performed in 96-well SPA plates (PerkinElmer, Cat. #1450-401) in 50 mM HEPES buffer, pH 7.4, containing 150 mM NaCl, 5 mM MgCl2, 10% (v/v) glycerol, 2 mM CHAPS, 0.5 mM β-octylglucopyranoside and 5 mM DTT. Tested compounds were dissolved in DMSO, and semi-log (3.162×) serial dilutions of the compounds were prepared in the same solvent. Two μL of the DMSO solutions were mixed with 28 μL of 8.6 nM 25-hydroxy [26,27-^3H]— cholesterol and 50 μL of 24 nM RORγ LBD. The plate was shaken at 700 rpm for 20 min and incubated for 10 min at rt, after which 40 μL of poly-Lys YSi SPA beads (PerkinElmer, Cat. # RPNQ0010) were added to achieve 50 μg of the beads per well. The plate was incubated on an orbital shaker for 20 min and then for 10 min without agitation at rt. SPA signal for tritium beta radiation was registered on PerkinElmer Microbeta plate reader. Percent inhibition values were calculated based on the high signal obtained with DMSO control and the low signal observed with 10 μM standard RORγ inverse agonist T0901317 (SigmaAldrich, Cat. # T2320). The percent inhibition vs. concentration data were fit into a four-parameter model, and […] values were calculated from the fit as the concentrations corresponding to the inflection points on the dose-response curves. Inhibitory constants (Ki) were calculated using the following equation, where [RL] is the concentration in the assay and KD is a dissociation constant of 25-hydroxy [26,27-^3H]-cholesterol: […]

[3] = Table 9, read-out: RORγt5X IC50 Range*
[4] = Table 8, read-out: RORγt5X IC50 Range*

Chain of recombinant RORγ Ligand Binding Domain (LBD) protein (P51449 269-508): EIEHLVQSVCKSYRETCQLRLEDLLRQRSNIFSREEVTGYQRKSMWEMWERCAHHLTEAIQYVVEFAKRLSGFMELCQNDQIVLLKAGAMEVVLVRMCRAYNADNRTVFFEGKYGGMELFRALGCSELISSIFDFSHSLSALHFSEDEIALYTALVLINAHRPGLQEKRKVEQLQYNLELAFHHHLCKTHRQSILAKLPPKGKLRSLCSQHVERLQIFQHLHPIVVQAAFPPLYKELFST
Chain of full-length RORγt in Jurkat cells (P51449 other isoform, or with tags, fused parts or gaps): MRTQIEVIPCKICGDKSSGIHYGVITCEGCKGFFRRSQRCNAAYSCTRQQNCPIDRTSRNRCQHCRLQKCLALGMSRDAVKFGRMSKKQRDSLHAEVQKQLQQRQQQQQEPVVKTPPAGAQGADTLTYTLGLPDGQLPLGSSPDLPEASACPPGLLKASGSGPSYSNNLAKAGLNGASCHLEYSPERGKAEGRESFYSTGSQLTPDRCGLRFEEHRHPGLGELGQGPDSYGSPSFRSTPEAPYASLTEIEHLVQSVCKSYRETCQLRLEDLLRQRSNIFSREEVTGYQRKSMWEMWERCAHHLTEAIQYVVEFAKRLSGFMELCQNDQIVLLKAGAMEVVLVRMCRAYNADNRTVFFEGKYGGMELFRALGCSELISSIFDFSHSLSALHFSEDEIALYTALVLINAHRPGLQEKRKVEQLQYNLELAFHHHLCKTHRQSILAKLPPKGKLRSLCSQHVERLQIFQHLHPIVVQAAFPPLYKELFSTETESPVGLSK

Row | SMILES | IC50 [1, 3] [nM] | Ki [2] [nM] | IC50 [1, 4] [nM]
1 | CC(C)[C@H]1c2nc(NC(=O)Cc3ccc(C(C)(C)C#N)cc3)sc2CN1Cc1ccc(Cl)cc1 | 100 to 1000 | < 100 | –
2 | CCS(=O)(=O)c1ccc(CC(=O)Nc2nc3c(s2)CN(C[C@H]2CC[C@H](O)CC2)[C@H]3C(C)C)cc1 | < 100 | < 100 | –
3 | CC(C)[C@H]1c2nc(NC(=O)Cc3ccc(F)c(F)c3)sc2CN1Cc1ccc(C(F)(F)F)cc1 | 100 to 1000 | 100 to 1000 | –
4 | CCS(=O)(=O)c1ccc(CC(=O)Nc2nc3c(s2)CN(CC2CCn4c(C)nnc4C2)[C@H]3C(C)C)cc1 (stereo partly drawn) | > 1000 | 100 to 1000 | –
5 | CC(C)[C@H]1c2nc(NC(=O)Cc3ccc(S(N)(=O)=O)cc3)sc2CN1Cc1ccc(C(F)(F)F)cc1 | < 100 | < 100 | –
6 | CC(C)Oc1ccc(CC(=O)Nc2nc3c(s2)CN(Cc2ccc(Cl)cc2)[C@H]3C(C)C)cc1 | > 1000 | 100 to 1000 | –
7 | CCS(=O)(=O)c1ccc(CC(=O)Nc2nc3c(s2)CN([C@H](C)c2c(F)cc(Cl)cc2F)[C@H]3C(C)C)cc1 | < 100 | < 100 | –
8 | CCS(=O)(=O)c1ccc(CC(=O)Nc2nc3c(s2)CN(Cc2ccn(CC(F)(F)F)c(=O)c2)[C@H]3C(C)C)cc1 | < 100 | < 100 | –
9 | CC(C)[C@H]1c2nc(NC(=O)Cc3ccc(-c4nnn(C)n4)cc3)sc2CN1Cc1ccc(Cl)cc1 | 100 to 1000 | 100 to 1000 | –
10 | CC(C)[C@H]1c2nc(NC(=O)Cc3ccc(-c4nnnn4C)cc3)sc2CN1Cc1ccc(Cl)cc1 | > 1000 | 100 to 1000 | –
11 | CC(C)[C@H]1c2nc(NC(=O)Cc3ccc(Br)cc3)sc2CN1Cc1ccc(Cl)cc1 | > 1000 | 100 to 1000 | –
12 | CC(C)[C@H]1c2nc(NC(=O)Cc3ccc(Cl)cc3)sc2CN1Cc1ccc(Cl)cc1 | > 1000 | < 100 | –
13 | CC(C)[C@H]1c2nc(NC(=O)Cc3ccc(-c4nnn[nH]4)cc3)sc2CN1Cc1ccc(Cl)cc1 | > 1000 | 100 to 1000 | –
14 | CCS(=O)(=O)c1ccc(CC(=O)Nc2nc3c(s2)CN(C[C@H]2CC[C@H](OC)CC2)[C@H]3C(C)C)cc1 | 100 to 1000 | < 100 | –
15 | CCS(=O)(=O)c1ccc(CC(=O)Nc2nc3c(s2)CN(C2CCC(C(F)(F)F)CC2)[C@H]3C(C)C)cc1 (stereo partly drawn) | 100 to 1000 | < 100 | –
16 | COc1ccc(CC(=O)Nc2nc3c(s2)CN(Cc2ccc(Cl)cc2)[C@H]3C(C)C)cc1 | > 1000 | < 100 | –
17 | CC(C)[C@H]1c2nc(NC(=O)Cc3ccccc3)sc2CN1Cc1ccc(Cl)cc1 | > 1000 | 100 to 1000 | –
18 | CC(C)[C@H]1c2nc(NC(=O)Cc3ccc(S(C)(=O)=O)cc3)sc2CN1Cc1ccn(C(F)F)c(=O)c1 | 100 to 1000 | < 100 | –
19 | CCS(=O)(=O)c1ccc(CNC(=O)c2nc3c(s2)CN(Cc2ccc4c(c2)OC(F)(F)O4)[C@H]3C(C)C)nc1 | < 100 | < 100 | –
20 | CCS(=O)(=O)c1ccc(CNC(=O)c2nc3c(s2)CN(Cc2ccc4nonc4c2)[C@H]3C(C)C)nc1 | 100 to 1000 | < 100 | –
21 | CCS(=O)(=O)c1ccc(CC(=O)Nc2nc3c(s2)CN(CC2CCOCC2)[C@H]3C(C)C)cc1 | > 1000 | < 100 | –
22 | CCS(=O)(=O)c1ccc(CC(=O)Nc2nc3c(s2)CN(C[C@H]2CC[C@H](C#N)CC2)[C@H]3C(C)C)cc1 | < 100 | < 100 | –
23 | CCS(=O)(=O)c1ccc(CC(=O)Nc2nc3c(s2)CN(C[C@H]2CC[C@H](C(N)=O)CC2)[C@H]3C(C)C)cc1 | 100 to 1000 | < 100 | –
24 | CCS(=O)(=O)c1ccc(CC(=O)Nc2nc3c(s2)CN(Cc2ccn(C(F)F)c(=O)c2)[C@H]3C(C)C)cc1 | < 100 | < 100 | –
25 | CCS(=O)(=O)c1ccc(CNC(=O)c2nc3c(s2)CN(Cc2ccc(C(F)F)cc2)[C@H]3C(C)C)nc1 | < 100 | < 100 | –

Row | SMILES | IC50 [1, 3] [nM] | Ki [2] [nM] | IC50 [1, 4] [nM]
26 | CC[C@H]1c2nc(NC(=O)Cc3ccc(S(=O)(=O)C(F)F)cc3)sc2CN1Cc1ccc(Cl)cc1 | 100 to 1000 | < 100 | –
27 | CCS(=O)(=O)c1ccc(CNC(=O)c2nc3c(s2)CN(Cc2cnc(C(F)(F)F)nc2)[C@H]3C(C)C)cc1 | 100 to 1000 | 100 to 1000 | –
28 | CCS(=O)(=O)c1ccc(CNC(=O)c2nc3c(s2)CN(Cc2ccc(C(F)(F)F)nc2)[C@H]3C(C)C)cc1 | 100 to 1000 | 100 to 1000 | –
29 | CCS(=O)(=O)c1ccc(CC(=O)Nc2nc3c(s2)CN(Cc2ccn(C4CC4)c(=O)c2)[C@H]3C(C)C)cc1 | 100 to 1000 | < 100 | –
30 | CC(C)[C@H]1c2nc(NC(=O)Cc3ccc(S(C)(=O)=O)cc3)sc2CN1Cc1ccc(-c2nnn[nH]2)cc1 | > 1000 | 100 to 1000 | –
31 | CC[C@H]1c2nc(NC(=O)Cc3ccc(S(=O)(=O)CC)cc3)sc2CN1Cc1ccc2nc[nH]c2c1 | 100 to 1000 | < 100 | –
32 | CCS(=O)(=O)c1ccc(CC(=O)Nc2nc3c(s2)CN(C[C@H]2CC[C@@H](C(=O)O)CC2)[C@H]3C(C)C)cc1 | > 1000 | 100 to 1000 | –
33 | CCS(=O)(=O)c1ccc(CC(=O)Nc2nc3c(s2)CN(Cc2ccc(=O)n(C)c2)[C@H]3C(C)C)cc1 | 100 to 1000 | < 100 | –
34 | CCS(=O)(=O)c1ccc(CC(=O)Nc2nc3c(s2)CN(Cc2ccc(C(F)(F)F)nn2)[C@H]3C(C)C)cc1 | < 100 | < 100 | –
35 | CC(C)[C@H]1c2nc(NC(=O)Cc3ccc(S(C)(=O)=O)cc3)sc2CN1Cc1ccc(C(F)(F)F)nn1 | 100 to 1000 | 100 to 1000 | –
36 | CCS(=O)(=O)c1ccc(CC(=O)Nc2nc3c(s2)CN(Cc2ccc(C(F)(F)F)nc2)C3C(C)C)nc1 (stereo not drawn) | < 100 | < 100 | –
37 | CCS(=O)(=O)c1cnc(CNC(=O)c2nc3c(s2)CN(Cc2ccc(C#N)cc2)[C@H]3C(C)C)nc1 | 100 to 1000 | < 100 | –
38 | CCS(=O)(=O)c1cnc(CNC(=O)c2nc3c(s2)CN(Cc2ccc(C(F)(F)F)cc2)[C@H]3C(C)C)nc1 | 100 to 1000 | < 100 | –
39 | CC(C)[C@H]1c2nc(NC(=O)Cc3ccc(C#N)cc3)sc2CN1Cc1ccc(C#N)c(OC(F)F)c1 | 100 to 1000 | < 100 | –
40 | Cc1cc(CN2Cc3sc(NC(=O)Cc4ccc(C#N)cc4)nc3[C@@H]2C(C)C)ccc1C#N | 100 to 1000 | < 100 | –
41 | CCS(=O)(=O)c1ccc(CC(=O)Nc2nc3c(s2)CN(C[C@H]2CC[C@@H](C(F)(F)F)CC2)C3C(C)C)cc1 (stereo partly drawn) | > 1000 | < 100 | –
42 | CCS(=O)(=O)c1ccc(CC(=O)Nc2nc3c(s2)CN(Cc2ccc(C#N)cc2C(F)(F)F)[C@H]3C(C)C)cc1 | > 1000 | < 100 | –
43 | CCS(=O)(=O)c1ccc(CC(=O)Nc2nc3c(s2)CN(Cc2c(F)cc(C#N)cc2F)[C@H]3C(C)C)cc1 | 100 to 1000 | < 100 | –
44 | CCS(=O)(=O)c1ccc(CC(=O)Nc2nc3c(s2)CN(Cc2ccc(C)nn2)[C@H]3C(C)C)cc1 | > 1000 | < 100 | –
45 | CCS(=O)(=O)c1ccc(CC(=O)Nc2nc3c(s2)C(C)N(Cc2ccc(Cl)cc2)[C@H]3C(C)C)cc1 (stereo partly drawn) | < 100 | < 100 | –
46 | CCS(=O)(=O)c1ccc(CC(=O)Nc2nc3c(s2)C(C)N(Cc2ccc(C#N)cc2)[C@H]3C(C)C)cc1 (stereo partly drawn) | 100 to 1000 | < 100 | –
47 | CCOC(=O)c1cnc(N2Cc3sc(NC(=O)Cc4ccc(S(=O)(=O)CC)cc4)nc3[C@]2(C)C(C)C)nc1C(F)(F)F | > 1000 | < 100 | –
48 | CCS(=O)(=O)c1ccc(CC(=O)Nc2nc3c(s2)CN(C[C@@H]2CC[C@@H](C(F)(F)F)N(C)C2)[C@H]3C(C)C)cc1 [I-A30] | – | – | < 100
49 | CCS(=O)(=O)c1ccc(CC(=O)Nc2nc3c(s2)CN(Cc2ccc4c(c2)OC(F)(F)O4)[C@H]3C(C)C)nc1 [I-L3] | – | – | < 100
